Tests used:
[1] = system: LAMPU (purple deadnettle); experiment: Post-Emergent Test III (Wheat and Barley); format: in vivo, Lamium purpureum; settings: for GR50, LAMPU / GR80, LAMPU / GR90, LAMPU: probit analysis
Procedure: (§1) Seeds of the desired test plant species were planted in Sun Gro MetroMix® 306 planting mixture, which typically has a pH of 6.0 to 6.8 and an organic matter content of about 30 percent, in plastic pots with a surface area of 103.2 square centimeters (cm^2). When required to ensure good germination and healthy plants, a fungicide treatment and/or other chemical or physical treatment was applied. The plants were grown for 7-36 days in a greenhouse with an approximate 14 h photoperiod which was maintained at about 18° C. during the day and 17° C. during the night. Nutrients and water were added on a regular basis and supplemental lighting was provided with overhead metal halide 1000-Watt lamps as necessary. The plants were employed for testing when they reached the second or third true leaf stage.
(§2) A weighed amount, determined by the highest rate to be tested, of each test compound was placed in a 25 mL glass vial and was dissolved in 4 mL of a 97:3 v/v mixture of acetone and DMSO to obtain concentrated stock solutions. […] The concentrated stock solutions obtained were diluted with 20 mL of an aqueous mixture containing acetone, water, isopropyl alcohol, DMSO, Agri-Dex crop oil concentrate, and X-77 surfactant in a 48:39:10:1.5:1.5:0.02 v/v ratio to obtain spray solutions containing the highest application rates. Additional application rates were obtained by serial dilution of 12 mL of the high rate solution into a solution containing 2 mL of 97:3 v/v mixture of acetone and DMSO and 10 mL of an aqueous mixture containing acetone, water, isopropyl alcohol, DMSO, Agri-Dex crop oil concentrate, and X-77 surfactant in a 48:39:10:1.5:1.5:0.02 v/v ratio to obtain ½×, ¼×, ⅛× and 1/16× rates of the high rate. Compound requirements are based upon a 12 mL application volume at a rate of 187 liters per hectare (L/ha). Formulated compounds were applied to the plant material with an overhead Mandel track sprayer equipped with 8002E nozzles calibrated to deliver 187 L/ha over an application area of 0.503 square meters at a spray height of 18 inches (43 cm) above the average plant canopy height. Control plants were sprayed in the same manner with the solvent blank.
(§3) The treated plants and control plants were placed in a greenhouse as described above and watered by subirrigation to prevent wash-off of the test compounds. After 21 dAYS, the condition of the test plants as compared with that of the untreated plants was determined visually and scored on a scale of 0 to 100 percent where 0 corresponds to no injury and 100 corresponds to complete kill and presented as indicated in Table A.
(§4) By applying the well-accepted probit analysis as described by J. Berkson in Journal of the American Statistical Society, 48, 565 (1953) and by D. Finney in “Probit Analysis” Cambridge University Press (1952), herbicidal injury of a specific compound at various rates can be used to calculate GR10, GR20, GR50, GR80 and GR90 values, which are defined as growth reduction factors that correspond to the effective dose of herbicide required to provide plant growth reduction (GR) of 10 percent, 20 percent, 50 percent, 80 percent and 90 percent, respectively. Probit analysis was applied to data collected from multiple dose rates of individual compounds utilizing the procedures explained in the following examples. The analysis of those dose rates is captured in the following tables.

BRSSS = experiment: Post-Emergent Test III (Wheat and Barley); format: in vivo; settings: for GR50, BRSSS / GR80, BRSSS / GR90, BRSSS: probit analysis
How it was run: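 Injury was rated visually on a 0 to 100 percent scale 21 days after treatment, relative to untreated plants, and probit analysis of multiple dose rates gave growth-reduction values. Plants at the second or third true leaf stage had been track-sprayed at 187 L/ha.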

SINAR (wild mustard) = experiment: Post-Emergent Test III (Wheat and Barley); format: in vivo, Sinapis arvensis; settings: for Visual Growth Reduction (%) 21 Days After Application, SINAR: postemergence
Procedure: as §1, §2, §3, §4

[2] = system: test plant species in Wheat and Barley; experiment: Post-Emergent Test III (Wheat and Barley), further species of Table 9; format: in vivo; settings: for Visual Growth Reduction (%) 21 Days After Application, CHEAL: CHEAL lambsquarters (Chenopodium album); for Visual Growth Reduction (%) 21 Days After Application, CHEAL / Visual Growth Reduction (%) 21 Days After Application, GALAP / Visual Growth Reduction (%) 21 Days After Application, STEME / Visual Growth Reduction (%) 21 Days After Application, VIOTR: post-emergent; for Visual Growth Reduction (%) 21 Days After Application, GALAP: GALAP cleavers (Galium aparine); for Visual Growth Reduction (%) 21 Days After Application, STEME: STEME common chickweed (Stellaria media); for Visual Growth Reduction (%) 21 Days After Application, VIOTR: VIOTR wild pansy (Viola tricolor)
Procedure: as §1, §2, §3, §4

[3] = effective dose for growth reduction of 50 percent
[4] = effective dose for growth reduction of 80 percent
[5] = effective dose for growth reduction of 90 percent

`Cc1c(-c2cc(N)c(Cl)c(C(=O)O)n2)ccc(Cl)c1F` [Compound 52] was tested, and the “Visual Growth Reduction (%) 21 Days After Application, LAMPU” value ([1]; 35 g ai/ha, postemergence) was “A (95-100)”, the “Visual Growth Reduction (%) 21 Days After Application, LAMPU” value ([1]; 70 g ai/ha, postemergence) was “A (95-100)” and the “Visual Growth Reduction (%) 21 Days After Application, LAMPU” value ([1]; 140 g ai/ha, postemergence) was “A (95-100)”. The “GR50, LAMPU” value [1, 3] was under 17.5 g ai/ha, the “GR80, LAMPU” value [1, 4] was under 17.5 g ai/ha and the “GR90, LAMPU” value [1, 5] was under 17.5 g ai/ha. The “Visual Growth Reduction (%) 21 Days After Application, BRSSS” value (BRSSS; 35 g ai/ha, postemergence) was “B (85-94)”, the “Visual Growth Reduction (%) 21 Days After Application, BRSSS” value (BRSSS; 70 g ai/ha, postemergence) was “B (85-94)” and the “Visual Growth Reduction (%) 21 Days After Application, BRSSS” value (BRSSS; 140 g ai/ha, postemergence) was “B (85-94)”. For the same compound, the “GR50, BRSSS” value (BRSSS; [3]) was 1 g ai/ha, the “GR80, BRSSS” value (BRSSS; [4]) was 11 g ai/ha and the “GR90, BRSSS” value (BRSSS; [5]) was 41 g ai/ha. For the same compound, the “Visual Growth Reduction (%) 21 Days After Application, SINAR” value (SINAR (wild mustard); 35 g ai/ha) was “A (95-100)”, the “Visual Growth Reduction (%) 21 Days After Application, SINAR” value (SINAR (wild mustard); 70 g ai/ha) was “A (95-100)” and the “Visual Growth Reduction (%) 21 Days After Application, SINAR” value (SINAR (wild mustard); 140 g ai/ha) was “A (95-100)”. The “GR50, SINAR” value (SINAR (wild mustard); effective dose for growth reduction of 50 percent, probit analysis) was 1 g ai/ha, the “GR80, SINAR” value (SINAR (wild mustard); effective dose for growth reduction of 80 percent, probit analysis) was 1 g ai/ha and the “GR90, SINAR” value (SINAR (wild mustard); effective dose for growth reduction of 90 percent, probit analysis) was 5 g ai/ha.
In the case of `Nc1cc(-c2ccc(Cl)c(Cl)c2Cl)nc(C(=O)O)c1Cl` [Compound 93], the “Visual Growth Reduction (%) 21 Days After Application, LAMPU” value ([1]; LAMPU purple deadnettle (Lamium purpureum), 17.5 g ai/ha, post-emergent) was “A (95-100)”, the “Visual Growth Reduction (%) 21 Days After Application, LAMPU” value ([1]; LAMPU purple deadnettle (Lamium purpureum), 35 g ai/ha, post-emergent) was “A (95-100)” and the “Visual Growth Reduction (%) 21 Days After Application, LAMPU” value ([1]; LAMPU purple deadnettle (Lamium purpureum), 70 g ai/ha, post-emergent) was “A (95-100)”. For the same compound, the “GR50, LAMPU” value ([1]; LAMPU, growth reduction of 50%, 21 days) was 1 g ai/ha, the “GR80, LAMPU” value ([1]; LAMPU, growth reduction of 80%, 21 days) was 2 g ai/ha and the “GR90, LAMPU” value ([1]; LAMPU, growth reduction of 90%, 21 days) was 8 g ai/ha. The “Visual Growth Reduction (%) 21 Days After Application, BRSSS” value (BRSSS; BRSSS oil seed rape (Brassica napus), 17.5 g ai/ha, post-emergent) was “A (95-100)”, the “Visual Growth Reduction (%) 21 Days After Application, BRSSS” value (BRSSS; BRSSS oil seed rape (Brassica napus), 35 g ai/ha, post-emergent) was “A (95-100)” and the “Visual Growth Reduction (%) 21 Days After Application, BRSSS” value (BRSSS; BRSSS oil seed rape (Brassica napus), 70 g ai/ha, post-emergent) was “A (95-100)”. For the same compound, the “GR50, BRSSS” value (BRSSS; BRSSS, growth reduction of 50%, 21 days) was 0 g ai/ha, the “GR80, BRSSS” value (BRSSS; BRSSS, growth reduction of 80%, 21 days) was 3 g ai/ha and the “GR90, BRSSS” value (BRSSS; BRSSS, growth reduction of 90%, 21 days) was 11 g ai/ha. The “Visual Growth Reduction (%) 21 Days After Application, CHEAL” value ([2]; 17.5 g ai/ha) was “C (75-84)”, the “Visual Growth Reduction (%) 21 Days After Application, CHEAL” value ([2]; 35 g ai/ha) was “B (85-94)” and the “Visual Growth Reduction (%) 21 Days After Application, CHEAL” value ([2]; 70 g ai/ha) was “B (85-94)”. For the same compound, the “GR50, CHEAL” value ([2]; CHEAL, growth reduction of 50%, probit analysis, 21 days) was 1 g ai/ha, the “GR80, CHEAL” value ([2]; CHEAL, growth reduction of 80%, probit analysis, 21 days) was 16 g ai/ha and the “GR90, CHEAL” value ([2]; CHEAL, growth reduction of 90%, probit analysis, 21 days) was 80 g ai/ha. For the same compound, the “Visual Growth Reduction (%) 21 Days After Application, GALAP” value ([2]; 17.5 g ai/ha) was “D (60-74)”, the “Visual Growth Reduction (%) 21 Days After Application, GALAP” value ([2]; 35 g ai/ha) was “C (75-84)” and the “Visual Growth Reduction (%) 21 Days After Application, GALAP” value ([2]; 70 g ai/ha) was “C (75-84)”. The “GR50, GALAP” value ([2]; GALAP, growth reduction of 50%, probit analysis, 21 days) was 1 g ai/ha, the “GR80, GALAP” value ([2]; GALAP, growth reduction of 80%, probit analysis, 21 days) was 88 g ai/ha and the “GR90, GALAP” value ([2]; GALAP, growth reduction of 90%, probit analysis, 21 days) was over 140 g ai/ha. The “Visual Growth Reduction (%) 21 Days After Application, STEME” value ([2]; 17.5 g ai/ha) was “E (45-59)”, the “Visual Growth Reduction (%) 21 Days After Application, STEME” value ([2]; 35 g ai/ha) was “D (60-74)” and the “Visual Growth Reduction (%) 21 Days After Application, STEME” value ([2]; 70 g ai/ha) was “D (60-74)”. For the same compound, the “GR50, STEME” value ([2]; STEME, growth reduction of 50%, probit analysis, 21 days) was 11 g ai/ha, the “GR80, STEME” value ([2]; STEME, growth reduction of 80%, probit analysis, 21 days) was over 140 g ai/ha and the “GR90, STEME” value ([2]; STEME, growth reduction of 90%, probit analysis, 21 days) was over 140 g ai/ha. For the same compound, the “Visual Growth Reduction (%) 21 Days After Application, VIOTR” value ([2]; 17.5 g ai/ha) was “E (45-59)”, the “Visual Growth Reduction (%) 21 Days After Application, VIOTR” value ([2]; 35 g ai/ha) was “E (45-59)” and the “Visual Growth Reduction (%) 21 Days After Application, VIOTR” value ([2]; 70 g ai/ha) was “E (45-59)”. For the same compound, the “GR50, VIOTR” value ([2]; VIOTR, growth reduction of 50%, probit analysis, 21 days) was 41 g ai/ha, the “GR80, VIOTR” value ([2]; VIOTR, growth reduction of 80%, probit analysis, 21 days) was over 140 g ai/ha and the “GR90, VIOTR” value ([2]; VIOTR, growth reduction of 90%, probit analysis, 21 days) was over 140 g ai/ha.
